Series [1] concerns the target T1, DNA repair protein RAD51 homolog 1 (Homo sapiens, UniProt Q06609).
T1 sequence (Q06609 whole entry): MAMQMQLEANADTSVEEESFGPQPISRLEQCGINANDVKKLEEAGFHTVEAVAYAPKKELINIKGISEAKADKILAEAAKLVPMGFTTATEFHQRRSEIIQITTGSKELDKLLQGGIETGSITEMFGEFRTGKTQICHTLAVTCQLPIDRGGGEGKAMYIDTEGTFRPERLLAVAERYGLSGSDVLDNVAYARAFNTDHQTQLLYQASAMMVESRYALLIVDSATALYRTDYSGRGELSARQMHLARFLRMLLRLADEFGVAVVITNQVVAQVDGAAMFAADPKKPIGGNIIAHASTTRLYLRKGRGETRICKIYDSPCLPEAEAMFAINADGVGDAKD
Description: Displacement of N-terminal biotinylated-BRC4 from recombinant human Rad51 expressed in Escherichia coli by ELISA.

The test system of series [2] is CAPAN-1. Description: Synergistic cytotoxicity against human Capan1 cells assessed as reduction in cell viability at 40 uM measured after 72 hrs in presence of PARP inhibitor olaparib by crystal violet staining based assay. Type of series: functional.
In series [3] the test system is CAPAN-1. Kind of series: Effect on homologous recombination in human Capan1 cells at 20 to 40 uM measured after 16 hrs by reporter gene based PCR analysis. In kind it is functional, cell-based.
Series [4] concerns BXPC-3. Kind of series: Synergistic cytotoxicity against human BxPC3 cells assessed as reduction in cell viability at 40 uM measured after 72 hrs in presence of PARP inhibitor olaparib by crystal violet staining based assay. Type of series: functional.
The target in series [5] is T2, DNA repair protein RAD51 homolog 1 (Homo sapiens) (UniProt Q06609).
T2 sequence (whole entry): T1 sequence (Q06609 whole entry)
Description: Binding affinity to Rad51 in human BxPC3 cells assessed as reduction in protein-mediated homologous recombination at 40 uM measured after 16 hrs by reporter gene based PCR analysis relative to control. The arrangement: scale not given: the % may be the effect or the level left. In kind it is cell-based.

In series [6] the target is T2, DNA repair protein RAD51 homolog 1 (Homo sapiens). Description: Binding affinity to Rad51 in human BxPC3 cells assessed as reduction in protein-mediated homologous recombination at 5 to 30 uM measured after 16 hrs by reporter gene based PCR analysis. In kind it is cell-based.
The target is the same in series [7]. Description: Binding affinity to Rad51 in human BxPC3 cells assessed as reduction in protein-mediated homologous recombination at 20 uM measured after 16 hrs by reporter gene based PCR analysis relative to control. In kind it is cell-based. On the set-up: scale not given: the % may be the effect or the level left.
Series [8] concerns BXPC-3. Kind of series: Induction of apoptosis in human BxPC3 cells assessed as caspase-3 activation at 20 uM measured after 144 hrs by Western blotting analysis. Type of series: functional, cell-based.
Series [9] relates to BXPC-3. Kind of series: Induction of DNA damage in human BxPC3 cells assessed as increase in gammaH2AX phosphorylation level at 20 uM measured after 144 hrs in presence of PARP inhibitor olaparib by Western blotting analysis relative to control. Type of series: functional.
The subject of series [10] is BXPC-3. Kind of series: Induction of apoptosis in human BxPC3 cells assessed as increase in PUMA level at 20 uM measured after 144 hrs by Western blotting analysis. Type of series: functional, cell-based.
Series [11] relates to BXPC-3. Description: Synergistic cytotoxicity against human BxPC3 cells assessed as reduction in cell viability at 20 uM measured after 72 hrs in presence of PARP inhibitor olaparib by crystal violet staining based assay. In kind it is functional.
In series [12] the test system is BXPC-3. Description: Synergistic cytotoxicity against human BxPC3 cells assessed as reduction in cell viability at 20 uM measured after 144 hrs in presence of PARP inhibitor olaparib by CellTox green dye based fluorescence assay. Type of series: functional.
Series [13] has as its system CAPAN-1. Kind of series: Synergistic cytotoxicity against human Capan1 cells assessed as reduction in cell viability at 20 uM measured after 72 hrs in presence of PARP inhibitor olaparib by crystal violet staining based assay. In kind it is functional.
For series [14], the system named is BXPC-3. Kind of series: Induction of DNA damage in human BxPC3 cells assessed as increase in gammaH2AX phosphorylation level at 20 uM measured after 144 hrs by Western blotting analysis. Type of series: functional, cell-based.
Series [15] concerns CAPAN-1. Description: Effect on homologous recombination in human Capan1 cells at 10 to 20 uM measured after 16 hrs by reporter gene based PCR analysis. In kind it is functional, cell-based.
The test system of series [16] is BXPC-3. Kind of series: Synergistic cytotoxicity against human BxPC3 cells assessed as combination index at 20 uM measured after 144 hrs in presence of PARP inhibitor olaparib by CellTox green dye based fluorescence assay. Type of series: functional.
Series [17] has as its system BXPC-3. Kind of series: Induction of apoptosis in human BxPC3 cells assessed as increase in BAX level at 20 uM measured after 144 hrs by Western blotting analysis. In kind it is functional, cell-based.
Series [18] has as its system BXPC-3. Kind of series: Synergistic cytotoxicity against human BxPC3 cells assessed as reduction in cell viability measured after 72 hrs in presence of PARP inhibitor olaparib by crystal violet staining based assay. Type of series: functional.
Series [19] can be described thus: Solubility of the compound in RPMI 1640 medium. Type of series: physicochemical.

The source made the active and inactive calls. The calls are words filed in the database; no cut-off is given here. Bounds are passed on as bounds.

Turning to `O=C(CSc1nnc(Cn2c(=O)sc3ccccc32)n1CCCc1ccccc1)C1CCCC1`, the EC50 result in [1] is “Not Active”. Same read-out and setting: the result for `O=C(CSc1nnc(Cn2c(=O)sc3ccccc32)n1CCCc1ccccc1)Nc1ccccc1` reads “Not Active”.

Consider `O=C(CSc1nnc(Cn2c(=O)sc3ccccc32)n1CCCc1ccccc1)NC1CC1`, for which the result in series [2], in series [3] and in series [4] was inactive. In addition, in series [5], the Activity turned out to be 24%. The EC50 in series [1] (read-out: EC50) worked out at 24 µM.

`O=C(CSc1nnc(Cn2c(=O)sc3ccccc32)n1CCc1cccc(O)c1)NC1CCCC1`: the EC50 entry in [1] was “Not Active”.

Consider `COc1ccc2sc(=O)n(Cc3nnc(SCC(=O)NC4CCCC4)n3CCc3ccccc3)c2c1`, for which the EC50 result in [1] was “Not Active”. As to `O=C(CSc1nnc(Cn2c(=O)sc3ccccc32)n1CCc1ccccc1)N1CCOCC1`, in [1], the concentration giving a half-maximal response (EC50) result is reported as “Not Active”.

As to `O=C(CSc1nnc(Cn2c(=O)sc3ccccc32)n1CCc1ccccc1)Nc1ccccc1`, the EC50 in series [1] (read-out: EC50) was 95 µM. On to `Cc1ccc(C#N)c(=O)n1Cc1nnc(SCC(=O)NC2CCCC2)n1CCCc1ccccc1`, for which the EC50 result in [1] is recorded as “Not Active”. Same read-out and setting: to `Cc1nnc(SCC(=O)NC2CCCC2)n1CCc1ccccc1` belongs “Not Active”. Still for that read-out and setting: to `O=C(CSc1nnc(Cn2c(=O)sc3ccccc32)n1CCc1ccc(F)cc1)NC1CCCC1` belongs “Not Active”; to `O=C(CSc1nnc(Cn2c(=O)sc3ccccc32)n1CCCc1ccncc1)NC1CCCC1`, “Not Active”. Same read-out and setting: to `O=c1sc2ccccc2n1Cc1nnc(S)n1CCc1ccccc1` belongs “Not Active”. As to `O=C(CSc1nnc(Cn2c(=O)sc3ccccc32)n1CCc1ccccc1F)NC1CCCC1`, the EC50 entry in series [1] was “Not Active”. Still for that read-out and setting: to `O=C(CSc1nnc(Cn2c(=O)sc3ccccc32)n1CCc1ccccc1)NC1CCCCC1` belongs “Not Active”. Turning to `O=C(CSc1nnc(Cn2c(=O)sc3ccccc32)n1CCCc1ccccc1)NC1CCCC1`, in [1] (read-out: EC50), the EC50 worked out at 25 µM. Also, in series [6], the result was inactive.

With `O=C(CSc1nnc(Cn2c(=O)sc3ccc(F)cc32)n1CCc1ccccc1)NC1CCCC1`, the concentration for a half-maximal effect (EC50) entry in [1] is listed as “Not Active”.

As to `O=C(CSc1nnc(Cn2c(=O)sc3ccccc32)n1CCCc1cccnc1)NC1CCCC1`, the EC50 entry in series [1] is on record as “Not Active”.

Turning to `Cl.NCc1ccc(-c2nnc(SCC(=O)NC3CCCC3)n2CCc2ccccc2)cc1`, the 50% effective concentration (EC50) entry in series [1] is listed as “Not Active”. The same measure, in the same setting: to `CN1CCC(NC(=O)CSc2nnc(Cn3c(=O)sc4ccccc43)n2CCCc2ccccc2)CC1` belongs “Not Active”. Consider `O=C(CSc1nnc(CN2CCSC2=O)n1CCCc1ccccc1)NC1CCCC1`, for which the EC50 result in series [1] is on record as “Not Active”. Regarding `O=C(CSc1nnc(Cn2c(=O)sc3ccccc32)n1CCCc1ccccc1)NC1CCCCC1`, the figures for the Activity in series [7], in [9] and in [18] were 40%, above 70% and “Dose-dependent effect”, respectively. For the same compound, the result in series [8], in [10], in series [13], in series [14], in series [15] and in [17] was inactive. Besides, the concentration giving a half-maximal response (EC50) in [1] (read-out: EC50) was 8 µM. For the same compound, the result in [11] and in series [12] was Active. Moreover, the CI in [16] is 0.76. Consider `O=C(CSc1nnc(Cn2c(=O)sc3ccc(O)cc32)n1CCc1ccccc1)NC1CCCC1`, for which the EC50 entry in series [1] is recorded as “Not Active”. The same measure, in the same setting: to `Cl.Nc1cccn(Cc2nnc(SCC(=O)NC3CCCC3)n2CCCc2ccccc2)c1=O` belongs “Not Active”; to `O=C(CSc1nnc(Cn2c(=O)sc3ccccc32)n1CCc1ccccc1)NCc1ccccc1`, “Not Active”; to `O=C(CSc1nnc(CNc2ccccc2)n1CCc1ccccc1)NC1CCCC1`, “Not Active”. On to `O=C(CSc1nnc(Cn2c(=O)sc3ccccc32)n1CCCc1ccccc1)NC1CCC1`, for which the solubility result in series [19] is “Insoluble”. The EC50 in series [1] (read-out: EC50) is 42 µM.

Consider `Cc1ccccc1CCn1c(Cn2c(=O)sc3ccccc32)nnc1SCC(=O)NC1CCCC1`, for which the EC50 in series [1] (read-out: EC50) was 100 µM.

For the compound `O=C(CSc1nnc(Cn2ccsc2=O)n1CCCc1ccccc1)NC1CCCC1`, the EC50 result in series [1] is given as “Not Active”. On to `O=C(CSc1nnc(Cn2c(=O)oc3ccccc32)n1CCCc1ccccc1)NC1CCCC1`, for which, in series [1] (read-out: EC50), the concentration for a half-maximal effect (EC50) turned out to be 90 µM. As to `NC(=O)CSc1nnc(Cn2c(=O)sc3ccccc32)n1CCc1ccccc1`, the concentration for a half-maximal effect (EC50) result in [1] is listed as “Not Active”. Consider `O=C(CSc1nnc(Cn2c(=O)sc3ccccc32)n1CCc1ccccc1)NC1CCCC1`, for which the concentration giving a half-maximal response (EC50) in series [1] (read-out: EC50) is 53 µM. Take `O=C(CSc1nnc(Cn2c(=O)sc3ccccc32)n1CCCc1ccccc1)N1CCCCC1`: in series [1], the EC50 result was “Not Active”. Take `O=C(CSc1nnc(Cn2c(=O)sc3ccccc32)n1CCc1cccc(F)c1)NC1CCCC1`: the EC50 result in [1] is listed as “Not Active”. Take `O=C(CSc1nnc(Cn2c(=O)sc3ccccc32)n1CCc1ccccc1)NCc1ccc(F)cc1`: the half-maximal effective concentration (EC50) entry in series [1] is on record as “Not Active”.

Consider `O=C(CSc1nnc(Cn2c(=O)sc3ccccc32)n1CCc1ccccc1O)NC1CCCC1`, for which the EC50 entry in [1] is recorded as “Not Active”. The same measure, in the same setting: to `O=C(CSc1nnc(Cn2c(=O)sc3ccccc32)n1CCc1ccccc1)NC1CC1` belongs “Not Active”. On the same count and under the same terms, to `O=C(CSc1nnc(Cn2c(=O)[nH]c3ccccc32)n1CCCc1ccccc1)NC1CCCC1` belongs “Not Active”; to `O=C(CSc1nnc(Cn2c(=O)sc3ccccc32)n1CCCc1ccccn1)NC1CCCC1`, “Not Active”. On the same count and under the same terms, to `O=C(CSc1nncn1CCc1ccccc1)NC1CCCC1` belongs “Not Active”; to `Cc1cccc(CCn2c(Cn3c(=O)sc4ccccc43)nnc2SCC(=O)NC2CCCC2)c1`, “Not Active”. Regarding `O=C(CSc1nnc(Cn2c(=O)sc3ccccc32)n1CCc1ccccc1)N1CCCC1`, the EC50 entry in [1] is listed as “Not Active”.

Values taken from ChEMBL document CHEMBL4480388, “Rad51/BRCA2 disruptors inhibit homologous recombination and synergize with olaparib in pancreatic cancer cells” (Eur J Med Chem, 2019).
